Laboratory results published in the pKa sets of Baltruschat and Czodrowski (2020).
Several values for one entry are separate records, joined by “and”; a condition that tells them apart may be missing. Equal entries are not always repeated.

Compared with `Cc1ccccc1Nc1c2ccccc2nc2ccccc12`, `Cc1cccc(Nc2c3ccccc3nc3ccccc23)c1` is lower in pKa: 7.76 for the first, 7.52 for the second.

Compared with `CS(=O)(=O)Nc1ccc(Nc2c3ccccc3nc3c(Cl)cccc23)cc1`, `Cc1ccc2c(Nc3ccc(NS(C)(=O)=O)cc3)c3ccccc3nc2c1` is higher in pKa: 5.92 for the first, 7.49 for the second.

First: NC1OC(CO)C(O)C(O)C1O (stereo not drawn)
Second: BP(=O)(OC[C@H]1O[C@@H](n2cnc3c(N)ncnc32)[C@H](O)[C@@H]1O)OP(=O)(O)C(Cl)(Cl)P(=O)(O)O (stereo partly drawn)
The pKa of the first is lower: 5.6 for the first, 7 for the second.

Compared with `CNS(=O)(=O)Cc1ccc2[nH]cc(CCN(C)C)c2c1`, `CN(C)CCCCc1ccc(C(C)(C)C)cc1` is higher in pKa: 9.5 for the first, 9.9 for the second.

Compared with `O=C(NCCCNC1CCCCC1)[C@H]1C[C@@H]1c1ccccc1`, `FC(F)(F)c1c(N2CCC(c3ccccc3)CC2)ccn2c(CC3CC3)nnc12` is lower in pKa: 10.4 for the first, 4.1 for the second.

First: Cc1cc(Nc2c3ccccc3nc3ccccc23)ccc1NS(C)(=O)=O
Second: Cc1cccc2nc3ccccc3c(Nc3ccc(NS(C)(=O)=O)cc3)c12
The pKa of the first is higher: 7.08 for the first, 6.43 for the second.

Compared with `CSc1nc(N)c2ncn([C@@H]3O[C@H](COP(=O)(O)OP(=O)(O)CP(=O)(O)O)[C@@H](O)[C@H]3O)c2n1`, `BP(=O)(OC[C@H]1O[C@@H](n2cnc3c(N)nc(SC)nc32)[C@H](O)[C@@H]1O)OP(=O)(O)C(F)(F)P(=O)(O)O` (stereo partly drawn) is lower in pKa: 8.4 for the first, 7 for the second.

`c1ccc(Nc2c3ccccc3nc3ccccc23)nc1` and `c1cncc(Nc2c3ccccc3nc3ccccc23)c1` are within 0.2 log units of each other in pKa: 6.32 for the first, 6.46 for the second.

First: CCCCNC(=O)c1cccc2c(Nc3ccc(NS(C)(=O)=O)cc3OC)c3ccccc3nc12
Second: COc1cc(NS(C)(=O)=O)ccc1Nc1c2ccccc2nc2c(Br)cccc12
The pKa of the first is higher: 6.36 for the first, 6.09 for the second.

First: Cc1cnc(NCC(F)(F)c2ccccc2)c(=O)n1CC(=O)NCc1cnc(N)cn1
Second: Cc1ccc(NS(=O)(=O)Cc2ccccc2)c(=O)n1CC(=O)NCc1nc(CN)cs1
The pKa of the first is lower: 2.7 for the first, 7.4 for the second.

Compared with `C/C(=N\N=C(/S)N/N=C(\S)Nc1cccc(I)c1)c1ccccn1`, `C/C(=N\N=C(/S)N/N=C(\S)Nc1ccccc1Cl)c1ccccn1` is higher in pKa: 7.03 for the first, 7.24 for the second.

First: COc1ccc(C(CCCN)(c2ccccc2)c2ccccc2)cc1
Second: CC(=O)c1ccc(Nc2c3ccccc3nc3ccccc23)cc1
The pKa of the first is higher: 9.86 for the first, 6.12 for the second.

Going from `CCCCCOC(=O)c1ccc(OS(N)(=O)=O)cc1` to `CCCCc1nc(Cl)c(COC)n1Cc1ccc(NC(=O)c2ccccc2S(=O)(=O)O)cc1`, the pKa falls from 8.47 to -6.6.

Compared with `COC(=O)[C@H]1[C@H]2C[C@@H]3c4[nH]c5cc(OC)ccc5c4CCN3C[C@H]2C[C@@H](OC(=O)c2cc(OC)c(OC)c(OC)c2)[C@@H]1OC`, `Cc1nc(N)ncc1CNC(=O)Cn1c(C)cnc(NCCc2ccc3c(c2)CCO3)c1=O` is lower in pKa: 7.25 for the first, 4.2 for the second.

Compared with `C[C@H](O)c1nccc(N2C[C@@H](C)N(c3ccnc([C@@H](C)O)n3)[C@@H](C)C2)n1`, `CN1CCN2c3ncccc3Cc3ccccc3C2C1` (stereo not drawn) is higher in pKa: 6 for the first, 7.3 for the second.

`CC(=O)N[C@@H](Cc1cc(F)cc(F)c1)[C@H](O)CNC1(c2cccc(C(C)(C)C)c2)CC1` and `CN1CC[C@H](N(C)C(=O)N2CC(c3cc(F)ccc3F)=C[C@@]2(CO)c2ccccc2)[C@@H](F)C1` are the same in pKa: 6.6 for the first, 6.6 for the second.

Compared with `C[C@H](CO)Nc1nc(SCc2cccc(F)c2F)nc2[nH]c(=O)sc12`, `CCc1cccc(CC)c1NC1=NCCN1` is higher in pKa: 6.7 for the first, 10.6 for the second.

First: Cc1cc(Cl)cc(Cl)c1N=C1NCCN1
Second: COc1cc(Cl)c(N=C2NCCN2)c(Cl)c1
The pKa of the first is higher: 9.03 for the first, 8.57 for the second.

`COc1cc(NS(C)(=O)=O)ccc1Nc1c2ccccc2nc2c(OCCO)cccc12` and `COc1cc(NS(C)(=O)=O)ccc1Nc1c2ccccc2nc2c(OCCCC(N)=O)cccc12` are the same in pKa: 7.36 for the first, 7.36 for the second.

Going from `CN(C)C(=O)C1C2c3ccccc3C(c3ccccc32)C1C(=O)N(C)C` (stereo not drawn) to `CS(=O)(=O)O.NC(=O)Cc1ccc(Nc2c3ccccc3nc3ccccc23)cc1`, the pKa rises from -1.34 to 7.43.

Going from `O=C(Nc1noc2ccccc12)N1CCN(Cc2cccc(Oc3ccc(Cl)cc3)c2)CC1` to `Clc1cccc(Nc2c3ccccc3nc3ccccc23)c1`, the pKa rises from -4.7 to 6.76.

Going from `CS(=O)(=O)Nc1ccc(Nc2c3ccccc3nc3ccc([N+](=O)[O-])cc23)cc1` to `COc1cc(NS(C)(=O)=O)ccc1Nc1c2ccccc2nc2cc(I)ccc12`, the pKa rises from 5.42 to 6.77.

First: CN(C)CCCNc1ccnc2cccc([N+](=O)[O-])c12
Second: CCN(CC)C(=O)[C@@H]1C=C2c3cccc4[nH]cc(c34)C[C@H]2N(C)C1
The pKa of the first is lower: 6.39 for the first, 7.8 for the second.

Compared with `CCC12CC3CC(CC(N)(C3)C1)C2`, `CCC1(c2ccccc2)C(=O)NC(=O)NC1=O` is lower in pKa: 10.6 for the first, 7.5 for the second.

Going from `Clc1cccc(Br)c1N=C1NCCN1` to `CNc1cccc(Nc2c3ccccc3nc3ccccc23)c1`, the pKa falls from 7.93 to 7.61.

Going from `CC1=CN(c2ccc(S(N)(=O)=O)cc2)C(N2C=CN(C)C=C2)N1` (stereo not drawn) to `COc1cc(NS(C)(=O)=O)ccc1Nc1c2ccccc2nc2cc(C)ccc12`, the pKa rises from 7.11 to 7.7.

First: CCCNC(=O)CN(CCN(CCN(CC(=O)O)CC(=O)O)CC(=O)O)CC(=O)O
Second: O=C(O)CCc1ccc(Nc2c3ccccc3nc3ccccc23)cc1
The pKa of the first is lower: 1.8 for the first, 7.91 for the second.

First: Fc1ncc[nH]1
Second: NS(=O)(=O)CCc1ccc(Nc2c3ccccc3nc3ccccc23)cc1
The pKa of the first is lower: 2.4 for the first, 7.43 for the second.

For `CN/C(=N/CCSCc1nc[nH]c1C)NC#N`, the pKa was 6.8 (3×) and 6.97 (2×).
For `O=c1n(CCCN2CCN(c3cccc(Cl)c3)CC2)nc2ccccn12`, the pKa was 6.7 and 6.73 and 6.79.
